Assay results: paper PMC12156367, “Synthesis and Biological Evaluation of Seco-Coumarin/Furoxan Hybrids as Potent Anti-Tumor Agents to Overcome Multidrug Resistance via Multiple Mechanisms” (Molecules, 2025)

Columns and labels:
hERG potassium channels = target: T1, hERG potassium channels (Homo sapiens, UniProt Q12809); experiment: Inhibition of hERG potassium channels (QPatch patch clamp, CHO-hERG cells); assay type: cell-based
T1 construct: expressed in transfected cells; host or cells: CHO-hERG cells (CHO cells expressing hERG)
T1 sequence (Q12809 whole entry): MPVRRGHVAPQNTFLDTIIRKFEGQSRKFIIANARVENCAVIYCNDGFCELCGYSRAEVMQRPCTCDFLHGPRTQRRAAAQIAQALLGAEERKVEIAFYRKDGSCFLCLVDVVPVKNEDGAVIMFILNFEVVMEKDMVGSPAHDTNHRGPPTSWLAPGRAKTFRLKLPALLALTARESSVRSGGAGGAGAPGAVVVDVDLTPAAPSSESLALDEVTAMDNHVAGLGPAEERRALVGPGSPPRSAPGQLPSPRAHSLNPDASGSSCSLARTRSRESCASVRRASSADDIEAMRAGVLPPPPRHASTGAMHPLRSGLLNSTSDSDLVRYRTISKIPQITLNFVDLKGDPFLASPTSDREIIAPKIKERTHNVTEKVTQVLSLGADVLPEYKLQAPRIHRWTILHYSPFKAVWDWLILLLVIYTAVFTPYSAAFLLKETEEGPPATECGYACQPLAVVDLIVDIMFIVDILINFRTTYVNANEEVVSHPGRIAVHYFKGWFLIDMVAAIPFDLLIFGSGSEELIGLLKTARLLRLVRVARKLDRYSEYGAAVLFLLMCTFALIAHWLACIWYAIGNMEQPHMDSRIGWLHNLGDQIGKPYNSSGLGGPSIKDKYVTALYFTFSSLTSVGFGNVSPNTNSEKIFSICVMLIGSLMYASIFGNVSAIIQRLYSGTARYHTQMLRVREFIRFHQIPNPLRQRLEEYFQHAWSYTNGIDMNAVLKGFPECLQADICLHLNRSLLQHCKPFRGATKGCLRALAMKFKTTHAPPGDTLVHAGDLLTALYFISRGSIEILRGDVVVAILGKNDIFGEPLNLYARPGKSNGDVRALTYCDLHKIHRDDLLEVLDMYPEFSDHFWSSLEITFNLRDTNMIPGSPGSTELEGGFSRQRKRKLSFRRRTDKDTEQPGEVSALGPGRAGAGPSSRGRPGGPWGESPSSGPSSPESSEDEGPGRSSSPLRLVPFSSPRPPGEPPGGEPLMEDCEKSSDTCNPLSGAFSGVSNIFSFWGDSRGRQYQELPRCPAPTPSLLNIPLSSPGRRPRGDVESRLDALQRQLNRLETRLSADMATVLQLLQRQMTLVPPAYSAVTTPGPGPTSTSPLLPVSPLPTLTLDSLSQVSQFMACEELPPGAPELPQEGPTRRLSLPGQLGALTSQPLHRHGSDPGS
Experimental: CHO-hERG cells (2 × 10^6 cells/dish) were seeded in confocal dishes. The compound stock solution was diluted with DMSO to six concentrations: 40.00, 13.33, 4.44, 1.48, 0.49, and 0.16 μM, which was prepared by using the Bravo platform. Both single-cell high-resistance sealing and whole-cell mode formation were automatically performed by the QPatch system (Shanghai Institute of Materia Medica, Shanghai, China). Each concentration was tested on at least two cells (n ≥ 2).

MCF-7/ADR = experiment: Lysosomal and mitochondrial NO levels (Lyso-NO, Mito-NO probes), MCF-7/ADR; assay type: cell-based, human
Experimental: Lysosomal NO probes (Lyso-NO) and mitochondrial NO probes (Mito-NO), which are specifically used for detecting the nitric oxide levels in lysosomes and mitochondria, respectively, were provided by Professor Weili Zhao (Fudan University, China). Cells (MCF-7 or MCF-7/ADR) were plated in 6-well plates (2 × 10^5 cells/well). After overnight incubation, indicated concentrations of 9e were added to the cells for 4 h. Cells were first treated with 10 μM Lyso-NO or Mito-NO (15 min, 37 °C), then counterstained with Hoechst 33,342 nuclear dye (Beyotime, China; 10 min, 37 °C). Finally, the fluorescence intensity was measured under a fluorescence microscope (Olympus, Tokyo, Japan).

GPX4 in MCF-7/ADR = experiment: Western blot of GPX4; assay type: cell-based, human; details: after treatment of 9e
Experimental: MCF-7/ADR (2 × 10^5 cells/well) were plated in 6-well plates. After 24 h treatment with 9e (20 nM), cell lysates were prepared using RIPA buffer (Beyotime, Shanghai, China; 30 min, ice), then centrifuged (12,000 rpm, 10 min, 4 °C) to harvest protein supernatants. Protein concentrations were measured by BCA assay (Beyotime, Shanghai, China). The supernatants were then loaded and transferred onto PVDF membranes (Millipore, Billerica, MA, USA) for western blot. The blots were developed with ECL chemiluminescent solution (Meilunbio, Dalian, China). Commercially purchased antibodies include P-gp (Abcam, Cambridge, UK; ab170904), Caspase 3 (Proteintech, Wuhan, China; 19677-1-AP), Bcl-2 (Servicebio, Wuhan, China; GB113375-100), LC3 (Abcam, Abcam, Cambridge, UK; ab192890), P62 (Cell Signaling Technology, Danvers, MA, USA; 5114 T), Beclin (ABclonal, Wuhan, China; A7353), GPX4 (ABclonal, Wuhan, China; A11243), LAMP1 (Cell Signaling Technology, Danvers, MA, USA;15,665 T), GAPDH (Servicebio, Wuhan, China; GB11002-100), and β-Actin (Servicebio, Wuhan, China;GB11001-100). The secondary antibodies conjugated with horseradish peroxidase (HRP) were from Abmart.

For `COc1ccc(CCC(=O)c2ccc(OCCOc3no[n+]([O-])c3S(=O)(=O)c3ccccc3)cc2OC)cc1` [Compound 9e, 4-(2-(3-methoxy-4-(3-(4-methoxyphenyl)propanoyl)phenoxy)ethoxy)-3-(phenylsulfonyl)-1,2,5-oxadiazole 2-oxide], the IC50 (hERG potassium channels) was greater than 40 µM, the Lyso-NO probe signal (MCF-7/ADR; 10 nM 9e, vs vehicle) was “significant rise” and the Mito-NO probe signal (MCF-7/ADR; 9e, vs control) was “no difference”. The “expression of GPX4” value (GPX4 in MCF-7/ADR) was “clearly decreased”.
